Results from article PMC4177084 (Journal of Thyroid Research, 2014).

Tests used:
FGFR2 = biological target: T1, FGFR2 (Homo sapiens, UniProt P21802); experiment: Cell free kinase inhibition assay; assay type: biochemical
T1 construct: purchased Carna Biosciences, Inc. (Kobe, Japan)

FGFR3 = biological target: T2, FGFR3 (Homo sapiens, UniProt P22607); experiment: Cell free kinase inhibition assay; assay type: biochemical
T2 construct: purchased Carna Biosciences, Inc. (Kobe, Japan)

KIT(T670I) = biological target: T3, KIT(T670I) (Homo sapiens, UniProt P10721, T670I); experiment: Cell free kinase inhibition assay; assay type: biochemical
T3 construct: purchased Carna Biosciences, Inc. (Kobe, Japan)
T3 sequence (P10721 26-976 T670I): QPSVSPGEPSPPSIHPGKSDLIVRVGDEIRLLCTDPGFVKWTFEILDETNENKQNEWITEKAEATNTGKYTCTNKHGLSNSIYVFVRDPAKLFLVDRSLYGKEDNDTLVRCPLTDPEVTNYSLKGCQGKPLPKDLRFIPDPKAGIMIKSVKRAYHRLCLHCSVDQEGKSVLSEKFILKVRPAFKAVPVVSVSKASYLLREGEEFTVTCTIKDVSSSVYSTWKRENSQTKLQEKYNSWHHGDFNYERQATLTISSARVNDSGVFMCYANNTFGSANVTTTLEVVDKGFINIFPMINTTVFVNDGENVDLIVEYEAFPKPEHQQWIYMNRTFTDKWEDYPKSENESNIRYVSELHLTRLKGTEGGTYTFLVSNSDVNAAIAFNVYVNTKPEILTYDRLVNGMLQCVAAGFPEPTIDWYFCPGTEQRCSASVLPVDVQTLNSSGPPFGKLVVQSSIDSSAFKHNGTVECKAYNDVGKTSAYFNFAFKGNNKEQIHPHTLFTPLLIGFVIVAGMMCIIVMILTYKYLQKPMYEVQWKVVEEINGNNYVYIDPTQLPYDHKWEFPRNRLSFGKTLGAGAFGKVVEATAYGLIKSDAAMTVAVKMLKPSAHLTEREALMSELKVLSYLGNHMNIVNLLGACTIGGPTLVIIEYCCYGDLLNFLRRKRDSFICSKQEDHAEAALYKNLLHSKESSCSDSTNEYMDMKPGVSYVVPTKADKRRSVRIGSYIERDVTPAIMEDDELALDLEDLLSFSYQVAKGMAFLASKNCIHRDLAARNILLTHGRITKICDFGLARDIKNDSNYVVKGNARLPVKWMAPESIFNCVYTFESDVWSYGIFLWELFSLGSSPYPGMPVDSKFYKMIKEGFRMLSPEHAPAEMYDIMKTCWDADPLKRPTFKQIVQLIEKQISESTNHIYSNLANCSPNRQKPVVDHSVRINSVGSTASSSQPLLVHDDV

[1] = system: 5 DTC xenograft models (K1, RO82-W-1, FTC-133, FTC-236, FTC-238); experiment: Human thyroid cancer xenograft models, tumor growth; assay type: in vivo, nude mice; conditions: all 5 DTC xenograft models, 30 and 100 mg/kg oral once daily 14 days
Description: (§1) Nude mice (CAnN.Cg-Foxn1nu/CrlCrlj, female, 5-6 weeks old) were obtained from Charles River Laboratories Japan (Kanagawa, Japan). Mice were maintained under specific pathogen-free conditions and housed in barrier facilities on a 12 h light/dark cycle, with food and water ad libitum. All procedures using laboratory animals were done in accordance with all applicable institutional and government regulatory guidelines and policies and were performed in an animal facility accredited by the Center for Accreditation of Laboratory Animal Care of the Japan Health Sciences Foundation. Tumor cells were cultured in appropriate culture mediums. […] Then, 0.1-0.2 mL of the cell suspension was inoculated subcutaneously into the right flank region of each mouse. […] The tumor size was measured in two dimensions by using a caliper, and the volume was calculated by using the formula: tumor volume (mm^3) = 1/2 length (mm) × [width (mm)]^2. The change in tumor volume in the treated group relative to that in the control group was calculated according to the following formula: ΔT/C = (ΔT/ΔC) × 100%, where ΔT and ΔC are the change in tumor volume (i.e., growth) for the treated and vehicle control group, respectively. The percentage of tumor growth inhibition (%TGI) was calculated from the formula: [(1 − ΔT/ΔC) × 100].

[2] = system: 5 ATC xenograft models (8305C, 8505C, TCO-1, KHM-5M, HTC/C3); experiment: as above; assay type: in vivo, nude mice; conditions: all 5 ATC xenograft models, 10 and 100 mg/kg oral once daily 14 days
Description: as §1

[3] = system: tumor microvessels in 5 ATC xenografts; experiment: Microvessel density (CD31 immunohistochemistry) in xenografts; assay type: in vivo, nude mice; conditions: all 5 ATC xenograft models, 10 and 100 mg/kg
Excerpt: (§2) Tumor tissues were resected from nude mice, embedded in Optimal Cutting Temperature (OCT) compound (Sakura Finetek Japan, Tokyo, Japan), frozen in dry ice-acetone, and then sectioned (8 μm), or they were embedded in paraffin, fixed overnight in immunohistochemical (IHC) Zinc Fixative (BD Biosciences), and then sectioned (6 μm). Tumor microvessels were stained by the indirect immunoperoxidase method with a rat anti-mouse CD31 monoclonal antibody (clone MEC13.3, BD Biosciences) and then visualized by using Vectastain ABC (Dako, Tokyo, Japan). Pericyte was stained by the indirect alkaline phosphatase method with an anti-α smooth muscle actin (SMA) antibody conjugated alkaline phosphatase (A 5691, Sigma-Aldrich) and visualized by using Simple Stain AP(R) (Nichirei Biosciences Inc, Tokyo, Japan). Adjacent sections were stained with Hematoxylin-Eosin. Microvessel density (MVD) was determined as described previously. Each section was scanned by using a microscope (VANOX AHBS3, Olympus, Tokyo, Japan) at low magnification to identify 5 areas with the highest densities of CD31-stained microvessels. The microvessels in the selected areas were then counted at 400x magnification. MVD was recorded as the number of microvessels per mm^2. In the DTC xenografts, the percentage of pericyte-covered microvessels was analyzed. Pericyte-covered vessels were identified by examining the colocalization of CD31- (endothelial cells-) positive vessels and αSMA- (pericytes-) positive cells. The number of pericyte-covered vessels was counted in the selected area and then compared with the total number of CD31-stained microvessels in the same area. The percentage of pericyte-covered microvessels was calculated as the number of pericyte-covered microvessels/total number of microvessels × 100 in the selected area. The MVD in the ATC xenograft models was determined by using the digital pathology system ScanScope XT (Aperio, Vista, CA). Briefly, CD31-stained whole tissue slices were scanned on the ScanScope system (Aperio) to generate high-resolution digital slides. By using a digital slide viewer, Aperio ImageScope (v10.0.36.1805, Aperio), 5 regions of interest (ROIs: each 500 μm square) were manually selected as areas with the highest densities of CD31-stained microvessels in each tumor slice. The number of microvessels in each ROI was measured by using Microvessel Analysis Algorithm v1.0 (Aperio), which automatically detects and quantifies microvessels on slides stained with endothelial markers. MVD was expressed as the number of microvessels per mm^2. […] The percentage of microvessel inhibition (%MVI) was calculated from the microvessel density (MVD) according to the following formula: [(1 − MVD of tumor in each compound-treated animal/Mean MVD of tumors in the vehicle control-treated group) × 100].

[4] = system: tumor microvessels in TT xenografts; experiment: as above; assay type: in vivo, nude mice; conditions: 10 or 100 mg/kg
Excerpt: as §2

[5] = system: tumor microvessels in 5 DTC xenografts; experiment: as above; assay type: in vivo, nude mice
Excerpt: as §2

FGFR3(K650M) = biological target: T4, FGFR3(K650M) (Homo sapiens, UniProt P22607, K650M); experiment: Cell free kinase inhibition assay; assay type: biochemical
T4 construct: purchased Carna Biosciences, Inc. (Kobe, Japan)
T4 sequence (P22607 23-806 K650M): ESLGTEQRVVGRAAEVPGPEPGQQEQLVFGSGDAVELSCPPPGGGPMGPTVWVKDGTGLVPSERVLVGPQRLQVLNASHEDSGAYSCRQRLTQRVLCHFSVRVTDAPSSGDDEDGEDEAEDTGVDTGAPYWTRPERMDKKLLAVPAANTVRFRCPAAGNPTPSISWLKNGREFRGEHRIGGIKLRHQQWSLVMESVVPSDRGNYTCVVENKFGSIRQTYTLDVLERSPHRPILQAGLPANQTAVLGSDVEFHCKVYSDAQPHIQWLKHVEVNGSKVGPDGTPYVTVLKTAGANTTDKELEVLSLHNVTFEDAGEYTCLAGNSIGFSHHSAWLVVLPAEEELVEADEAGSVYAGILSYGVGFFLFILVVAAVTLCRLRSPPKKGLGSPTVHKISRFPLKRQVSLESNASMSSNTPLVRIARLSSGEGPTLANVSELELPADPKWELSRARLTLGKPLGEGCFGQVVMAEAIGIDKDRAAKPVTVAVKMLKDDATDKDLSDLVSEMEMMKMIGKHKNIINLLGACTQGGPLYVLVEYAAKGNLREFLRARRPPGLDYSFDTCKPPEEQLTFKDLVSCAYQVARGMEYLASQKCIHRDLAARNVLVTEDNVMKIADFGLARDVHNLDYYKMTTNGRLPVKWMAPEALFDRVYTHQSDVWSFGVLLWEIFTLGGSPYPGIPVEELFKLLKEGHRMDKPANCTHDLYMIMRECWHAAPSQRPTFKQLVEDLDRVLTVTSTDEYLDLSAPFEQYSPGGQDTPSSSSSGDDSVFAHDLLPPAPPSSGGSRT

JAK2 = biological target: T5, JAK2 (Homo sapiens, UniProt O60674); experiment: Cell free kinase inhibition assay; assay type: biochemical
T5 construct: purchased Carna Biosciences, Inc. (Kobe, Japan)
T5 sequence (O60674 whole entry): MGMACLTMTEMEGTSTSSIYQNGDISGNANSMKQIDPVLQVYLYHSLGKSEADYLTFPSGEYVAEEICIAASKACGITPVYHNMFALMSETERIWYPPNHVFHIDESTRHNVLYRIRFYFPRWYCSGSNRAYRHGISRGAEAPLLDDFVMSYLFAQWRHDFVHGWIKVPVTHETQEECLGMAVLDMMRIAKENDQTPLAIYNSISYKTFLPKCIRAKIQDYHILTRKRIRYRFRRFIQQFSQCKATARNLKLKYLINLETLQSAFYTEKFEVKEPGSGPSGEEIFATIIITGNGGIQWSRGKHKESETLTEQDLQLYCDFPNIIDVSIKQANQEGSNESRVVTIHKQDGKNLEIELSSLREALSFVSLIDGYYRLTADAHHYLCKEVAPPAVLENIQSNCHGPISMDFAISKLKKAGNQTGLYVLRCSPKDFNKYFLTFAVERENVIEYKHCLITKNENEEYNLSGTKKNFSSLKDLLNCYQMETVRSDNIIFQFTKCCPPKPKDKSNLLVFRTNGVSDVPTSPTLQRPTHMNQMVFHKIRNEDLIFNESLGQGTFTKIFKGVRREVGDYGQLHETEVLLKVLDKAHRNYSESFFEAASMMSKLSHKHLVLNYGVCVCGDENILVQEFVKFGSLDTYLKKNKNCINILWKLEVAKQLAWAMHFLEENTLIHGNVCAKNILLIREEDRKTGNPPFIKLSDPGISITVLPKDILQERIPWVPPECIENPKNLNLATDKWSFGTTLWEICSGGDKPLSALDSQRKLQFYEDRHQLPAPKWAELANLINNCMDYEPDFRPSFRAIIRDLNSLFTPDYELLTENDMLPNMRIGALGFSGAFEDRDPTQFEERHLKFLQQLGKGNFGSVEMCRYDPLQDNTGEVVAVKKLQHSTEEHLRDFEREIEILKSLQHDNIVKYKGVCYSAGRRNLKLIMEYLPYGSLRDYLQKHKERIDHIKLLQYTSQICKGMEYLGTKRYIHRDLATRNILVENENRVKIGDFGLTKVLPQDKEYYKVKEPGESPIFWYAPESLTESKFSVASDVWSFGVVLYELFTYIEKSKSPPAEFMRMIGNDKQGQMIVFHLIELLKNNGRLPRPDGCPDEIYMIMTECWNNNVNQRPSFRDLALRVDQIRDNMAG

PIM1 = biological target: T6, PIM1 (Homo sapiens, UniProt P11309); experiment: Cell free kinase inhibition assay; assay type: biochemical
T6 construct: purchased Carna Biosciences, Inc. (Kobe, Japan)
T6 sequence (P11309 whole entry): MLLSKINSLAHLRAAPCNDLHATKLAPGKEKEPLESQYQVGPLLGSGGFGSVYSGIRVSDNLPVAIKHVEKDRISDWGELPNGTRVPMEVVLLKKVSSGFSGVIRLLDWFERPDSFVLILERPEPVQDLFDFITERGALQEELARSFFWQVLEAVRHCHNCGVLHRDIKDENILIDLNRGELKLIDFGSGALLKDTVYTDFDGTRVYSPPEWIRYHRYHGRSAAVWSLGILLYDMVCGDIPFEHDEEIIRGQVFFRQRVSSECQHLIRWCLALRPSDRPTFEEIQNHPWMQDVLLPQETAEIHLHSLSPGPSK

FGR = biological target: T7, FGR (Homo sapiens, UniProt P09769); experiment: Cell free kinase inhibition assay; assay type: biochemical
T7 construct: purchased Carna Biosciences, Inc. (Kobe, Japan)

8305C cells = experiment: Antiproliferation assay (WST-8); assay type: cell-based; conditions: Homo sapiens, 72 h; 8305C (ATC), antiproliferative, 3 days
FGFR3(K650E) = biological target: T8, FGFR3(K650E) (Homo sapiens, UniProt P22607, K650E); experiment: Cell free kinase inhibition assay; assay type: biochemical
T8 construct: purchased Carna Biosciences, Inc. (Kobe, Japan)
T8 sequence (P22607 23-806 K650E): as the sequence (P22607 23-806 K650M) above, with M628E counted along it

CSK = biological target: T9, CSK (Homo sapiens, UniProt P41240); experiment: Cell free kinase inhibition assay; assay type: biochemical
T9 construct: purchased Carna Biosciences, Inc. (Kobe, Japan)
T9 sequence (P41240 whole entry): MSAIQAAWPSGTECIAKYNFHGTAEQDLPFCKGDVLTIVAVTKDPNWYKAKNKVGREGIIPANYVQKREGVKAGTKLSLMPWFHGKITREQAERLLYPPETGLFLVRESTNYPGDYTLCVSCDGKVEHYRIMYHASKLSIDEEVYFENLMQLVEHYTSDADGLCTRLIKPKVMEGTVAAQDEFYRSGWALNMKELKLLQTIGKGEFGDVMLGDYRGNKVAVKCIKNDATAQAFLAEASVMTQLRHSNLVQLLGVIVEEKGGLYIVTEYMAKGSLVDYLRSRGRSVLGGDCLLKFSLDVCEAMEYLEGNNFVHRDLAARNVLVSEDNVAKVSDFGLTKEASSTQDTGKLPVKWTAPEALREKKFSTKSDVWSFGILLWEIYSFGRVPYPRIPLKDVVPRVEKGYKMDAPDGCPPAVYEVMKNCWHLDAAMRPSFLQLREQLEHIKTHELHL

MUSK = biological target: T10, MUSK (Homo sapiens, UniProt O15146); experiment: Cell free kinase inhibition assay; assay type: biochemical
T10 construct: purchased Carna Biosciences, Inc. (Kobe, Japan)

LCK = biological target: T11, LCK (Homo sapiens, UniProt P06239); experiment: Cell free kinase inhibition assay; assay type: biochemical
T11 construct: purchased Carna Biosciences, Inc. (Kobe, Japan)
T11 sequence (P06239 whole entry): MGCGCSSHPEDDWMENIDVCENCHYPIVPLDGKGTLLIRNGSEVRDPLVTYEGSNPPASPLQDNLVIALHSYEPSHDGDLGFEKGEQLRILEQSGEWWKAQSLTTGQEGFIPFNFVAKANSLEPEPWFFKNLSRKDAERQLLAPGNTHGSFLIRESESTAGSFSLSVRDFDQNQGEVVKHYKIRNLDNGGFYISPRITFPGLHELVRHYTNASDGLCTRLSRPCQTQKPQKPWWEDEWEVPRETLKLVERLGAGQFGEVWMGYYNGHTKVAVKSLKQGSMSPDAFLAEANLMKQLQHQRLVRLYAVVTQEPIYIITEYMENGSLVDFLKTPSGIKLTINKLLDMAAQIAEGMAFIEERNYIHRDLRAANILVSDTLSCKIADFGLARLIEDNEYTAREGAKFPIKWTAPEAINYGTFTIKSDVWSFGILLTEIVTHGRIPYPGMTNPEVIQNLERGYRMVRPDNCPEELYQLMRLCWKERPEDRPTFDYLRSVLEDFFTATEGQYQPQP

T1 sequence (P21802 22-821): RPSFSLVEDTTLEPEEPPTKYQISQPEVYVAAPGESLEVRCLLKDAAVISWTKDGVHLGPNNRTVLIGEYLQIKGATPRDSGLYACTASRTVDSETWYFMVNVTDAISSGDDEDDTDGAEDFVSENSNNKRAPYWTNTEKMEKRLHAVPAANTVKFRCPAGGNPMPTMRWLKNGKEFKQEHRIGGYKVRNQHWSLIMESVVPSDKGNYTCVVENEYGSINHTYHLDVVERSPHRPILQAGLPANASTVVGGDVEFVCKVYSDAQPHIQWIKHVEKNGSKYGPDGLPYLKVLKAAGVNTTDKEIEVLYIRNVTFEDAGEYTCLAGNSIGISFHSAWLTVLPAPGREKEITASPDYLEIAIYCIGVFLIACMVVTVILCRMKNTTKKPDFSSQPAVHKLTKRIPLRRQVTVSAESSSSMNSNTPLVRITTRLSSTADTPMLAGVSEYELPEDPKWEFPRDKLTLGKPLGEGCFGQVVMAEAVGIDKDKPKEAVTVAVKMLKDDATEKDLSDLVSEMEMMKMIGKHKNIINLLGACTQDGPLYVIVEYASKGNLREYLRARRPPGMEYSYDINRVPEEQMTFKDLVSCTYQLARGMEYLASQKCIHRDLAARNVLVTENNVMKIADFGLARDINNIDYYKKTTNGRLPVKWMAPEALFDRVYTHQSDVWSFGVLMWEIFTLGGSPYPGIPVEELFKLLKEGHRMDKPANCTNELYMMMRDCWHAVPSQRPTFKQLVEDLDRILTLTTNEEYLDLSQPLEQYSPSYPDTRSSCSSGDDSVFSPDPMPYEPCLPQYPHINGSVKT
T2 sequence (P22607 23-806): as the sequence (P22607 23-806 K650M) above, with M628K counted along it

COc1cc2nccc(Oc3ccc(NC(=O)NC4CC4)c(Cl)c3)c2cc1C(N)=O [Lenvatinib, Lenvatinib mesilate]
IC50 (FGFR2): 27 nM
IC50 (FGFR3): 52 nM
IC50 (KIT(T670I)): 410 nM
antitumor activity [1]: significant antitumor activity
antitumor activity [2]: significant antitumor activity
MVD [3]: decreased significantly
MVD [4]: did not decrease the MVDs
MVD ([5]; 10 mg/kg): significantly decreased in 4 of the 5 DTC xenografts
MVD ([5]; 100 mg/kg, all of the 5): significantly decreased
IC50 (FGFR3(K650M)): 250 nM
IC50 (JAK2): > 10000 nM
IC50 (PIM1): > 10000 nM
IC50 (FGR): 910 nM
IC50 (8305C cells): 26000 nM
IC50 (FGFR3(K650E)): 110 nM
IC50 (CSK): 2600 nM
IC50 (MUSK): > 10000 nM
IC50 (LCK): 130 nM
